Results reported in publication PMC10108392, “Rimonabant-Based Compounds Bearing Hydrophobic Amino Acid Derivatives as Cannabinoid Receptor Subtype 1 Ligands” (ACS Medicinal Chemistry Letters, 2023).
“Also recorded” adds a separate entry of the source.

Key:
mice [1] = assay: Zymosan-induced paw edema; format: in vivo, mouse
Method: Drugs were administered s.c. in the dorsal surface of the right hind paw at the dose of 100 μg/20 μL, 15 min before zymosan. […]
testing. […] Then, the compounds were
Compounds were prepared by freshly diluting
Then, these solutions were injected for
The total time the animal spent licking or biting its paw was calculated.
Then, paw edema was calculated as formerly
Paw volume was quantified using a
Data Analysis and Statistics
Statistically significant differences between
Data were considered statistically
The data and statistical analyses respected the recommendations on experimental design and analysis.

mice [2] = assay: Feeding test (food intake); format: in vivo, mouse; conditions: 10 mg/kg i.p., 1-h test, vs vehicle
Method: The tested compounds were injected i.p. (10 mg/kg), and after leaving for 30 min to allow the drug assimilation, mice were placed into individual cages with access to a predefined amount of their standard lab chow (2 g) for the 1-h test.
(§1) In Vivo Biological Assays
The international and national law and policies approved by Italian Ministry of Health were used to comply with all animal care and experimental procedures. Animal studies were advised in compliance with the ARRIVE guidelines and with the recommendations made by EU Directive 2010/63/EU for animal experiments and the Basel declaration including the 3Rs concept. CD-1 male mice (10-14 weeks of age, 25-30 g of weight) were bought from Charles River (Milan, Italy). Shortly after their arrival and for at least one week, they were kept in an animal care facility under controlled standard conditions of temperature (21 ± 1 °C), light (from 7:00 AM to 7:00 PM), and relative humidity (60 ± 10%). Access to drinking water and food was assured. All procedures were performed to decrease the number of animals used (n = 7 per group) and their distress.
The test was carried out as previously described. At 24 h before the start of a feeding test, all food was removed from the home cages of mice to be tested. The next day and at least 1 h before the feeding test began, the mice were transported to the laboratory. On test days, the animals were placed in the home cages for 30 min of drug assimilation, during which food was not available. Then compounds were intraperitoneally administered (10 mg/kg). Mice were transferred into transparent and individual plastic cages with thick white paper lining the bottom and access to a pre-measured amount of their regular lab chow (2 gr) for the 1-h test. At the end of 1 h, mice were repositioned into their home cage. The amount of food left in the trial cage, including crumbs, was measured, and the amount consumed was calculated.
Feeding trials normally happened on Tuesdays and Fridays between 12:00 and 14:00 h. […]

mice [3] = assay: Hot plate test; format: in vivo, mouse; conditions: 10 μg/10 μL i.c.v., 15-120 min
Excerpt: as §1
The international and national law and policies approved by Italian Ministry of Health were used to comply with all animal care and experimental procedures. Animal studies were advised in compliance with the ARRIVE guidelines and with the recommendations made by EU Directive 2010/63/EU for animal experiments and the Basel declaration including the 3Rs concept. CD-1 male mice (10-14 weeks of age, 25-30 g of weight) were bought from Charles River (Milan, Italy). […]
The test was carried out as previously described. […] Mice were transferred into transparent and individual plastic cages with thick white paper lining the bottom and access to a pre-measured amount of their regular lab chow (2 gr) for the 1-h test. […] The amount of food left in the trial cage, including crumbs, was measured, and the amount consumed was calculated. […]
Thermal nociception (hot-plate test) was assessed with a commercially available apparatus consisting of a metal plate 25x25 cm (Ugo Basile, Italy) heated to a constant temperature of 55.0 ± 0.1 °C, on which a plastic cylinder (20 cm diameter, 18 cm high) was placed. The time of latency (s) was recorded from the moment the animal was placed in the cylinder on the hot plate until it licked its paws or jumped; the cut-off time was 60 s. […] The time course of latency was then determined at 15, 30, 45, 60, 90 and 120 min after compound treatment. […]

CB1R = target: T1, CB1R (Rattus norvegicus, UniProt P20272); assay: Ligand stimulated [35S]GTPγS binding assay in rat brain membranes; format: biochemical; conditions: rat brain membranes
T1 construct: Crude membrane fractions were prepared from the brain; from tissue; host or cells: Wistar rat whole brain, crude membrane fraction
T1 sequence (P20272 whole entry): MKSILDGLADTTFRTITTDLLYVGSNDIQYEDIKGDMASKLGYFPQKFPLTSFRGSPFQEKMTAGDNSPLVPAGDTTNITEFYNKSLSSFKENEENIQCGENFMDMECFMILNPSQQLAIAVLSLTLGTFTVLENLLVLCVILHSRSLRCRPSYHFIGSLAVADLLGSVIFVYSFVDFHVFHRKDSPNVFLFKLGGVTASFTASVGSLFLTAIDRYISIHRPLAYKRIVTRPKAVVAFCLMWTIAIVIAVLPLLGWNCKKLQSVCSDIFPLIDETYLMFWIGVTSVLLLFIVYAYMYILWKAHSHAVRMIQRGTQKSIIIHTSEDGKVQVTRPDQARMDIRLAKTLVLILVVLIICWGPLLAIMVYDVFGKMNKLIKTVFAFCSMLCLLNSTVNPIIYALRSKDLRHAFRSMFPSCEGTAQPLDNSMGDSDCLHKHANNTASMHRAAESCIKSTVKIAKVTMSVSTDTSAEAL
Method: Our novel chemical compounds were tested in vitro for their binding ability, efficacy, and potency on CB1R in rat brain membrane homogenate (Table 2 and SI, Figure S1). CB1Rs are the most abundant G-protein coupled receptors in the rodent and mammalian brain; therefore, this is an appropriate model to characterize our ligands in a more physiological system.
In Vitro Biological Assays
Preparation of Brain Membrane Homogenates
Wistar rats were locally bred and handled according to the EU Directive 2010/63/EU and to the Regulations on Animal Protection (40/2013. (II. 14.) Korm. r.) of Hungary. Crude membrane fractions were prepared from the brain. Brains were quickly removed from the euthanized rats and directly put in an ice-cold 50 mM Tris-HCl buffer (pH 7.4). The collected tissue was then homogenized in 30 volumes (v/w) of an ice-cold buffer with a Braun Teflon-glass homogenizer at the highest rpm. The homogenate was centrifuged at 20,000 × g for 25 min, and the resulting pellet was suspended in the same volume of a cold buffer followed by incubation at 37 °C for 30 min to remove endogenous ligands. Centrifugation was then repeated. The final pellets were taken up in five volumes of a 50 mM Tris-HCl (pH 7.4) buffer containing 0.32 M sucrose and stored at -80 °C. Prior to the experiment, aliquots were thawed and centrifuged at 20,000 ×g for 25 min and then they were resuspended in 50 mM Tris-HCl (pH 7.4), homogenized with a Douncer, followed by the determination of the protein concentration by the method of Bradford. The membrane suspensions were immediately used either in radioligand binding experiments or in [35S]GTPγS functional assays. […]
was terminated by diluting the samples with an ice-cold wash buffer (50 mM of Tris-HCl, 2.5 mM of EGTA, 5 mM of MgCl2, 0.5% fatty acid free BSA, pH 7.4), followed by repeated washing and rapid filtration through Whatman GF/B glass fiber filters (Whatman Ltd., Maidstone, UK) pre-soaked with 0.1% polyethyleneimine (30 min before the filtration). Filtration was performed with a 24-well Brandel Cell Harvester (Gaithersburg, MD, USA). Filters were air-dried and immersed into Ultima Gold MV scintillation cocktail, and then radioactivity was measured with a TRI-CARB 2100TR liquid scintillation analyzer (Packard, Perkin Elmer, Waltham, MA, USA).
Ligand Stimulated [35S]GTPγS Binding Assay
Rat brain membranes (30 µg protein/tube), prepared as described above, were incubated with 0.05 nM of […]
mM of NaCl, 3 mM of MgCl2 and 1 mM of EGTA in a 50 mM Tris-HCl buffer (pH 7.4) for 60 min at 30 °C. Basal [35S]GTPγS binding was measured in the absence of ligands and set as 100%. Nonspecific […]
binding was determined by the addition of 10 µM unlabelled GTPγS and subtracted from total binding.
Incubation, filtration and radioactivity measurements of the samples were carried out as described above. […]
All […]
data and curves were analyzed by GraphPad Prism 5.0 (San Diego, CA, USA).

Question: How did the “anti-inflammatory effect on zymosan-induced paw volume increase” value (mice [1]; 100 μg/20 μL s.c., 15 min before zymosan) turn out when `CNC(=O)[C@@H](NC(=O)c1nn(-c2ccc(Cl)cc2)c(-n2cccc2)c1C)C(C)(C)C` [Compound 34, RS2691-tLeu-NHCH3] was run?
Answer: The value was “significantly reduce paw volume increase induced by zymosan from 1 to 4 h; also recorded: reduced the paw volume increase from 1 to 4 h”.

Question: And the “percentage of paw volume in zymosan-induced hindlimb edema” value (mice [1]; s.c. injection, for 24 h)?
Answer: Its value is “below 75%”.

Question: What about the food intake (mice [2]) of the same compound?
Answer: The food intake was “increase food intake; also recorded: increased the food intake; also recorded: significant orexic effect”.

Question: What about the “anti-nociceptive effect in hot plate test (%MPE)” value (mice [3]) of the same compound?
Answer: Its value is “strong and long-lasting anti-nociceptive effect; also recorded: more potent than that of the reference compound”.

Question: And the “CB1R functional profile (agonist / antagonist / inverse agonist)” value (CB1R; from [35S]GTPγS binding)?
Answer: The value was “agonist”.

Question: What about the EC50 (CB1R; ± SEM, read-out: [35S]GTPγS stimulation EC50) of the same compound?
Answer: Its EC50 is 46 ± 4.1 nM.
